This is an account of results in ChEMBL document CHEMBL5465560, “Selectivity Literature for EUbOPEN Chemogenomic Library” (2024).

The structures appear in SMILES notation.

Assay [1] deals with Adenosine receptor A1 (Homo sapiens) (UniProt P30542). Put plainly: Selectivity interaction (CEREP panel (binding assay, receptors and ion channels)) EUB0001623a ADORA1. As to conditions: at 1 µM.
The target in assay [2] is Cyclin-dependent kinase 1/cyclin B (Homo sapiens) (UniProt P06493+P14635+Q8WWL7+O95067). Put plainly: Selectivity interaction (Kinase panel (literature)) EUB0001623a CDK1. It is filed as protein-complex assay. As to conditions: at 1 µM.
In assay [3] the target is Cyclin-dependent kinase 2/cyclin A (Homo sapiens) (UniProt P24941+P20248+P78396). Briefly: Selectivity interaction (Kinase panel (literature)) EUB0001623a CDK2. The format is protein-complex assay. The settings on record: at 1 µM.
In assay [4] the target is Cyclin-dependent kinase 5 (Homo sapiens, UniProt Q00535). Put plainly: (§1) Selectivity interaction (Kinase panel (literature)) EUB0001623a CDK5. As to conditions: at 1 µM.
Assay [5] addresses CDK5/Cyclin D3 (Homo sapiens) (UniProt Q00535+P30281). The assay is described as §1. The format is protein-complex assay. As to conditions: at 1 µM.
Assay [6] addresses CDK6/cyclin D3 (Homo sapiens) (UniProt P30281+Q00534). Put plainly: Selectivity interaction (Kinase panel (literature)) EUB0001623a CDK6. The settings on record: at 1 µM. It is filed as protein-complex assay.
Assay [7] concerns the target CDK7/Cyclin H/MNAT1 (Homo sapiens) (UniProt P51946+P50613+P51948). Put plainly: Selectivity interaction (Kinase panel (literature)) EUB0001623a CDK7. It is filed as protein-complex assay. As to conditions: at 1 µM.
Assay [8] has as its target Cyclin-dependent kinase 8 (Homo sapiens, UniProt P49336). Put plainly: Selectivity interaction (Reporter displacement assay) EUB0001623a CDK8.
For assay [9], the target named is CDK9/cyclin T1 (Homo sapiens) (UniProt O60563+P50750). Briefly: Selectivity interaction (Kinase panel (literature)) EUB0001623a CDK9. It is filed as protein-complex assay. The settings on record: at 1 µM.
In assay [10] the target is Cyclin-dependent kinase 9 (Homo sapiens, UniProt P50750). Put plainly: Selectivity interaction (Reporter displacement assay) EUB0001623a CDK9.
In assay [11] the target is T1, D(2) dopamine receptor (Homo sapiens, UniProt P14416). Briefly: (§2) Selectivity interaction (CEREP panel (binding assay, receptors and ion channels)) EUB0001623a DRD2. As to conditions: at 1 µM.
In assay [12] the target is T1, D(2) dopamine receptor. Described as §2.
In assay [13] the target is T2, Receptor-type tyrosine-protein kinase FLT3 (Homo sapiens, UniProt P36888).
T2 sequence (P36888 whole entry): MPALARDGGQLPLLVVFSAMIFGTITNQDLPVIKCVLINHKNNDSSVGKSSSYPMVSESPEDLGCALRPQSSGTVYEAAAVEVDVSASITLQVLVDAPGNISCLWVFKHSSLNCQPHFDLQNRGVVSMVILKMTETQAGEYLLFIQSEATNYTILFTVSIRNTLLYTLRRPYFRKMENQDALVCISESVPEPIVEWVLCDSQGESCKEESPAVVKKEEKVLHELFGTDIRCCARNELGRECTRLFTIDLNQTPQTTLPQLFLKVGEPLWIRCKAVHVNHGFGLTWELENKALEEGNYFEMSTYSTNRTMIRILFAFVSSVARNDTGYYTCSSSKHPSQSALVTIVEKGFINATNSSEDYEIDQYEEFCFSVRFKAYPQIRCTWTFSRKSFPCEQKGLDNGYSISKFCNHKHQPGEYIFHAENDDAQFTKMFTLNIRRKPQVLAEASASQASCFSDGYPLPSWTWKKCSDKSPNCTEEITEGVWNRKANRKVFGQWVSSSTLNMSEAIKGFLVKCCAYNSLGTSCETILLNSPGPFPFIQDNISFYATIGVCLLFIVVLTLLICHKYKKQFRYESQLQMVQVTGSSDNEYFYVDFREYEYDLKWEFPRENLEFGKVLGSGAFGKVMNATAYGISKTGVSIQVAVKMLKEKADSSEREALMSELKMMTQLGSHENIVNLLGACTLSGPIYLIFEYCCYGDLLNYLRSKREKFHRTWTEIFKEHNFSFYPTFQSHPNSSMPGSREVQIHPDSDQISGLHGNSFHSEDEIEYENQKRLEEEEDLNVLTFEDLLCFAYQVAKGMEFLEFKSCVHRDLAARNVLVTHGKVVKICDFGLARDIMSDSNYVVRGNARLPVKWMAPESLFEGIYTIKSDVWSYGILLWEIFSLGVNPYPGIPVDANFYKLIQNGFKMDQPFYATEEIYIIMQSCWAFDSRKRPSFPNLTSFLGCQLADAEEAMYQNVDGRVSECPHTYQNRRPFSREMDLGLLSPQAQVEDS
Put plainly: Selectivity interaction (Kinase panel (literature)) EUB0001623a FLT3.

In assay [14] the target is NT-3 growth factor receptor (Homo sapiens, UniProt Q16288). Put plainly: Selectivity interaction (Kinase panel (literature)) EUB0001623a NTRK3.
Assay [15] deals with Ribosomal protein S6 kinase beta-1 (Homo sapiens, UniProt P23443). Put plainly: Selectivity interaction (Kinase panel (literature)) EUB0001623a RPS6KB1. The settings on record: at 1 µM.
Assay [16] concerns the target T3, Serine/threonine-protein kinase Sgk1 (Homo sapiens) (UniProt O00141).
T3 sequence (whole entry): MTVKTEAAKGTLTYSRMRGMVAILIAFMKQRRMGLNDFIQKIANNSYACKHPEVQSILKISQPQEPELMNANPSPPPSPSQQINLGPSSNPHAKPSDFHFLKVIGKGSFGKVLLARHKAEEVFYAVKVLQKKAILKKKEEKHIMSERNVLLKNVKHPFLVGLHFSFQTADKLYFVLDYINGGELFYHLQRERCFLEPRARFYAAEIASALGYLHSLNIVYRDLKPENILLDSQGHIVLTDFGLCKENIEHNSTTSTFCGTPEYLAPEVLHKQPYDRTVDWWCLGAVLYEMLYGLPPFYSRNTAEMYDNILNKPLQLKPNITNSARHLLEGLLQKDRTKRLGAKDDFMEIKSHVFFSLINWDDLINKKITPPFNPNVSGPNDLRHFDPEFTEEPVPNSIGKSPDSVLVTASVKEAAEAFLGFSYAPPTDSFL
Briefly: Selectivity interaction (Kinase panel (literature)) EUB0001623a SGK1. The settings on record: at 1 µM.

For assay [17], the target named is Cyclin-dependent kinase 2/cyclin E (Homo sapiens) (UniProt P24864+P24941+O96020). As to conditions: at 1 µM.
Assay [18] addresses Cyclin-dependent kinase 3 (Homo sapiens) (UniProt Q00526). As to conditions: at 1 µM.
Assay [19] concerns the target T4, Cyclin-dependent kinase 12 (Homo sapiens, UniProt Q9NYV4). Briefly: Selectivity interaction (Radioactive kinase activity assay) EUB0001635a CDK12.
Assay [20] addresses T4, Cyclin-dependent kinase 12. Put plainly: Selectivity interaction (Western blot assay (pull-down blockage of CDK7-cyclin H using lysates from HAP1 cells)) EUB0001635a CDK12. The format is cell-based.
For assay [21], the target named is T4, Cyclin-dependent kinase 12. Put plainly: Selectivity interaction (Western blot assay (pull-down blockage of CDK7-cyclin H using lysates from Jurkat cells)) EUB0001635a CDK12. The format is subcellular, lysate.
The target of assay [22] is T5, Cyclin-dependent kinase 13 (Homo sapiens, UniProt Q14004). Put plainly: Selectivity interaction (Radioactive kinase activity assay) EUB0001635a CDK13.
The target in assay [23] is T5, Cyclin-dependent kinase 13. Put plainly: Selectivity interaction (Western blot assay (pull-down blockage of CDK7-cyclin H using lysates from HAP1 cells)) EUB0001635a CDK13. It is filed as cell-based.
In assay [24] the target is T5, Cyclin-dependent kinase 13. Briefly: Selectivity interaction (Western blot assay (pull-down blockage of CDK7-cyclin H using lysates from Jurkat cells)) EUB0001635a CDK13. The format is subcellular, lysate.
Assay [25] concerns the target T6, Cyclin-dependent kinase 7 (Homo sapiens, UniProt P50613). Briefly: Selectivity interaction (Electrophoretic mobility shift assay) EUB0001635a CDK7.
Assay [26] addresses Cyclin-dependent kinase 7 (Homo sapiens, UniProt P50613, C312S). Briefly: Selectivity interaction (Radioactive kinase assays (from cellular C312S flag-tagged CDK7 immunoprecipitated in HeLa cells)) EUB0001635a CDK7. The format is cell-based.
The target of assay [27] is T6, Cyclin-dependent kinase 7. Put plainly: Selectivity interaction (Western blot assay (pull-down blockage of CDK7-cyclin H using lysates from HAP1 cells)) EUB0001635a CDK7. It is filed as cell-based.
The target in assay [28] is T6, Cyclin-dependent kinase 7. Put plainly: Selectivity interaction (Western blot assay (pull-down blockage of CDK7-cyclin H using lysates from Jurkat cells)) EUB0001635a CDK7. It is filed as subcellular, lysate.

T4 sequence (Q9NYV4 whole entry): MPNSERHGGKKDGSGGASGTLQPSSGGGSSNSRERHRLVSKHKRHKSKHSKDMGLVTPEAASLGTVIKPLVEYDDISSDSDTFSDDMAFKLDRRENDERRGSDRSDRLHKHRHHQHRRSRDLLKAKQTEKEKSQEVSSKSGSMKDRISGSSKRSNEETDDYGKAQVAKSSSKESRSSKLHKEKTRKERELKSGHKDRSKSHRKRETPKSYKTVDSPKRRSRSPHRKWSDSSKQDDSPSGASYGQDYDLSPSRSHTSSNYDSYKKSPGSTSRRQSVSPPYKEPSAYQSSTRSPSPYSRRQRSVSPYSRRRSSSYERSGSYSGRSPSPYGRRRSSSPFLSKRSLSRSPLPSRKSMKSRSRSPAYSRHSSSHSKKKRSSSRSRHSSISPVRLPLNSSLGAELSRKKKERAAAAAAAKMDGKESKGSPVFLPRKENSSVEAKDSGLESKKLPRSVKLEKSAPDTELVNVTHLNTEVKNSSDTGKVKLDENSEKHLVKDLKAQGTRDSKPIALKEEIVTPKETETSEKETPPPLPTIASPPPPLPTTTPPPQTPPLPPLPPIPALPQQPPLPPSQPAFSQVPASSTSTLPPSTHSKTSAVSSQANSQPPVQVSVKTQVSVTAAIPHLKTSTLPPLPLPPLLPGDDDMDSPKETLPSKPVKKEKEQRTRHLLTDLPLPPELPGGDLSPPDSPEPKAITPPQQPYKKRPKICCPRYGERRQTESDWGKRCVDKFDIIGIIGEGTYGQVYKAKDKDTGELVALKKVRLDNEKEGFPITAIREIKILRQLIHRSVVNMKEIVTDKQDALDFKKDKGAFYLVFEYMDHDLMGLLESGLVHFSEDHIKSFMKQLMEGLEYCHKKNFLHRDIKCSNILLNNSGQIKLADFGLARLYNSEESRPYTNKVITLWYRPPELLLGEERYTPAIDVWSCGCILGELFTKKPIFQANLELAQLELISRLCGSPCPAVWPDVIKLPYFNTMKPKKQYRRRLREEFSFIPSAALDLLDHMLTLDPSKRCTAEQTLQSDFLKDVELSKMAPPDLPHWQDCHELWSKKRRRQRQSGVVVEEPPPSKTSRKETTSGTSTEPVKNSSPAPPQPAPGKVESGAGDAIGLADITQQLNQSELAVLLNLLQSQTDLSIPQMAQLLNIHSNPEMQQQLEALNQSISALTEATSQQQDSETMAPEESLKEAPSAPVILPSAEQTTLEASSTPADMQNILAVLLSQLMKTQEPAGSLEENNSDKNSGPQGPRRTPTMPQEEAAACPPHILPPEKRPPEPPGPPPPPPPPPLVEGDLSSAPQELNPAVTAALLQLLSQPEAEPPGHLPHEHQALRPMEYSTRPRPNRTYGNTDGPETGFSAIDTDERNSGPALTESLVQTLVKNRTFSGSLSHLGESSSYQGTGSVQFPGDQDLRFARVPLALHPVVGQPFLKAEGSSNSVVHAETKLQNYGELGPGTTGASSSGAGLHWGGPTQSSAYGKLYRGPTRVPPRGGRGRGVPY
T5 sequence (Q14004 whole entry): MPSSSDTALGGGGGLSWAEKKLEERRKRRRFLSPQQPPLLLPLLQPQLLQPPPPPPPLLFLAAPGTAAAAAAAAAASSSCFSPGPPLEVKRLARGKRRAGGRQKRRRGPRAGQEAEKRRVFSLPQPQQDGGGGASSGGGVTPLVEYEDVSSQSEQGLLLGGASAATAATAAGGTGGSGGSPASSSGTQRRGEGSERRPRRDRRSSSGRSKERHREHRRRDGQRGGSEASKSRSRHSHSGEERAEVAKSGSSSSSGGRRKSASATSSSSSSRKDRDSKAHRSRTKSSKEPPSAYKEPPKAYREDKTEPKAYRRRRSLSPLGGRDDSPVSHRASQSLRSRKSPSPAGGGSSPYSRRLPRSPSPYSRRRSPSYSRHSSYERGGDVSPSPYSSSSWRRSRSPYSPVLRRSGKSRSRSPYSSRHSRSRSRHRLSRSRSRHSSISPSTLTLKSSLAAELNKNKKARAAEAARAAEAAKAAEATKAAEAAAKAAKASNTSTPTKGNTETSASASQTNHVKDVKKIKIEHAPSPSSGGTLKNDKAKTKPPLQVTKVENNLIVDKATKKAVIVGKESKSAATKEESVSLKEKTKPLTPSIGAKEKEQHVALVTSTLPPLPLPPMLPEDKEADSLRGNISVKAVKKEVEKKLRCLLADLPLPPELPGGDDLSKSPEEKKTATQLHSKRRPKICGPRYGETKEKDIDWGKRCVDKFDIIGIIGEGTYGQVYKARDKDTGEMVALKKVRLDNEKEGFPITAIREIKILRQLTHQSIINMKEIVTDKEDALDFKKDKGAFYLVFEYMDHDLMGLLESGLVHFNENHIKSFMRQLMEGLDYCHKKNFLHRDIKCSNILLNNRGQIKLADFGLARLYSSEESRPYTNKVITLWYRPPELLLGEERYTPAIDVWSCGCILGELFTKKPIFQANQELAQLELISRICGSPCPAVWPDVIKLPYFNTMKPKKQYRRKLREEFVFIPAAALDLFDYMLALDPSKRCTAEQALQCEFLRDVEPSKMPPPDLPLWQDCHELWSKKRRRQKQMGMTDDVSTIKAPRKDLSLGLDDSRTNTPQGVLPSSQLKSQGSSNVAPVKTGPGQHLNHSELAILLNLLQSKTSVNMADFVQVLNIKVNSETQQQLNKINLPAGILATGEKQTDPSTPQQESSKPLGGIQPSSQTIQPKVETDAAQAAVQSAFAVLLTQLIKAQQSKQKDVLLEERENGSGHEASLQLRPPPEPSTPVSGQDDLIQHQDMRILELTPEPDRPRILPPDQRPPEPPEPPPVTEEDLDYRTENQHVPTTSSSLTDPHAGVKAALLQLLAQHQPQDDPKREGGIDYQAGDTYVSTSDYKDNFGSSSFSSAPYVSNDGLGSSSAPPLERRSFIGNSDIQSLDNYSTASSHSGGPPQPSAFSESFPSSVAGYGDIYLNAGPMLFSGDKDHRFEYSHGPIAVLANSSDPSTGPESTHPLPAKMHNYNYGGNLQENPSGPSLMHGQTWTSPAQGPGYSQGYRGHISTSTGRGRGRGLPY
T6 sequence (P50613 whole entry): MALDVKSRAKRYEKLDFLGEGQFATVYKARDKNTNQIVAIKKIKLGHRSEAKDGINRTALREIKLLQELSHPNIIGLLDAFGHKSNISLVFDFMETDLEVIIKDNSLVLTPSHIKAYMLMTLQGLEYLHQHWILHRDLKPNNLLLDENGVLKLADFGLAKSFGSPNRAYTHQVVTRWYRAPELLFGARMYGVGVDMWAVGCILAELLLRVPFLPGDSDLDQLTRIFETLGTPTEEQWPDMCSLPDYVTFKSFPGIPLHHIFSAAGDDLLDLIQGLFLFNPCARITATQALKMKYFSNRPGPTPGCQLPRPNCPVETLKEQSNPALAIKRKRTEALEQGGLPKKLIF
T1 sequence (P14416 whole entry): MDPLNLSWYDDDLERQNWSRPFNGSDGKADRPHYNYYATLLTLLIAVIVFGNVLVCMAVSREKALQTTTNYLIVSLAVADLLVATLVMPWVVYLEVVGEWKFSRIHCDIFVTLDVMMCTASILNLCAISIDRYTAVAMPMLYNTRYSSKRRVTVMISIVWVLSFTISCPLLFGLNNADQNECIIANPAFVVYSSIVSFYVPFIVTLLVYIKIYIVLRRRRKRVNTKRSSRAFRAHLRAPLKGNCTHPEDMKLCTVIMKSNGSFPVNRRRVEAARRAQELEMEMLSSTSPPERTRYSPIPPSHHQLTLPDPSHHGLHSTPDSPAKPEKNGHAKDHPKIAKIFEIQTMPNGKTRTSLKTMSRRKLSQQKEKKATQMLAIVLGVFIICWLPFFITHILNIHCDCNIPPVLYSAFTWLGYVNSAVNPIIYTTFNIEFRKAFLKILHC
Cyclin-dependent kinase 8, sequence (P49336 whole entry): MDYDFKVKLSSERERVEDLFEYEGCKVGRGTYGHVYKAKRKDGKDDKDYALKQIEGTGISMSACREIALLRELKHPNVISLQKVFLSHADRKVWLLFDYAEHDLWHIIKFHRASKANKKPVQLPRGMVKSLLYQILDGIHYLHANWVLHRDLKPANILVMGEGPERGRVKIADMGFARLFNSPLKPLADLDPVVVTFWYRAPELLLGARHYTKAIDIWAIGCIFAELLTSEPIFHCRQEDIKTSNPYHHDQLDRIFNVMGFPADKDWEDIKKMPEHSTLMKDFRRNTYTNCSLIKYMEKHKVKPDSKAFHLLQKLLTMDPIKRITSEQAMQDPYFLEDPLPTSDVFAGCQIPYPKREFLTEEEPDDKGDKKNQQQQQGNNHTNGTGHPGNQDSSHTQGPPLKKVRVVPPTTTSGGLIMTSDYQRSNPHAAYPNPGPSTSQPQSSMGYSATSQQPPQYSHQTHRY
Ribosomal protein S6 kinase beta-1, sequence (P23443 whole entry, looked up): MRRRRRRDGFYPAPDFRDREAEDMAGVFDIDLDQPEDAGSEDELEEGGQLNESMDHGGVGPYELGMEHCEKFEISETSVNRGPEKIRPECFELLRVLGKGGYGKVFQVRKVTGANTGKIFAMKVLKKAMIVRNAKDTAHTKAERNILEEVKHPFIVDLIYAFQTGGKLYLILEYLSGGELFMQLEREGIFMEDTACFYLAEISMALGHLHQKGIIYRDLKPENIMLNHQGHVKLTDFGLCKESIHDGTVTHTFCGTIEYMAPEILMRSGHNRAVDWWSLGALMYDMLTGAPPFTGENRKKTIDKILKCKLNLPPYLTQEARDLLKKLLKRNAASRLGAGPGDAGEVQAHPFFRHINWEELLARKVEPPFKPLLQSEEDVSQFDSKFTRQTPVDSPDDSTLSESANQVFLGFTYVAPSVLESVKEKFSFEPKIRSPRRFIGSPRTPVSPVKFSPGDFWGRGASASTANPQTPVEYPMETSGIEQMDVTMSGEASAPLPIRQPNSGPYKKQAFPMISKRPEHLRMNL
Cyclin-dependent kinase 5, sequence (Q00535 whole entry, looked up): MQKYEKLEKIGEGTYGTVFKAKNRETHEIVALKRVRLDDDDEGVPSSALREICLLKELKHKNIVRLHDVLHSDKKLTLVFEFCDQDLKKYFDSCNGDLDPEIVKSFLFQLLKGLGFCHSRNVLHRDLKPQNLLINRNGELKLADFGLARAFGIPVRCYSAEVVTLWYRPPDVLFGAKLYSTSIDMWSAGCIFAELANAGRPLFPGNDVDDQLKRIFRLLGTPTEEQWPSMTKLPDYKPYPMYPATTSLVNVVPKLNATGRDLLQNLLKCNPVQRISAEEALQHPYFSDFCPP

With `Cc1n[nH]c2ncc(C(=O)N3CCC[C@H]3c3ccc(Cl)cc3)cc12`, the % of inhibition in assay [1] was 48%; in assay [2] it was 2%; in assay [3] it was -7%; in [4], -1%; in [5], -1%; in [6] it was 12%. The % of inhibition in [7] stood at 7%; in assay [9], 13%; on D(2) dopamine receptor [11] it was 54%; in assay [15], 47%; in [16], 39%; in [17], 18%. Moreover, the % of inhibition in assay [18] amounted to 2%. Further, the IC50 in [8] is 0.004 µM; in assay [10], 0.004 µM; on D(2) dopamine receptor [12] it was 8.5 µM; in assay [13] it was greater than 30 µM; in [14] it was greater than 30 µM.
Take `C=CC(=O)Nc1ccc(C(=O)Nc2n[nH]c3c2CN(C(=O)N[C@H](CN(C)C)c2ccccc2)C3(C)C)cc1`: the IC50 in assay [19] is greater than 10 µM; in [20], greater than 1 µM; in assay [21], greater than 1 µM; in assay [22], greater than 10 µM; in assay [23], greater than 1 µM; in assay [24] it was greater than 1 µM. In addition, the IC50 in assay [26] is greater than 10 µM; in [27], greater than 30 µM; in assay [28] it was greater than 30 µM. Also, the Ki in assay [25] amounted to 0.0019 µM.
